Data on one compound can be found in patent US8932594B2, “Adjuvants and methods of use” (The Scripps Research Institute, priority 2006, dated 2015).

One experiment relates to splenic DCs. Nature of the experiment: Induction of DC maturation in vivo, FACS of splenic cells. The settings on record: 1 μg intravenous, 24 hours; CD11c+/CD8+ and CD11c+/CD8− cells. Further details: species or system mice. As for the experimental part: Mice were injected with α-GalCer, PBS-31 and PBS-32 and DC differentiation was examined in splenic DCs by analyzing cell surface marker expression.
Three mice in each group were injected intravenously with 1 μg lipid or vehicle alone. At 24 hours post-injection, CD1d expression was examined on splenic B cells (B220+), macrophages (CD11b+) and DCs (CD11c+) by FACS analysis using a FACScalibur machine and FlowJo analysis software.
The maturation of DCs was analyzed by measuring expression of CD40, CD80, CD86, and MHC class II on CD11c^+/CD8^+ and CD11c^+/CD8^− cells (FIG. 8). […] PBS-32 and αGalCer reached maximal induction between 0.1 and 1 μg (data not shown).
Induction of DC maturation was unaffected in MyD88^−/− and MyD88^−/−TRIF^−/− knock out animals in which the Toll-like receptor pathway is partially, or totally impaired, respectively (data not shown). The CD1d-dependence was confirmed by injecting CD1d^−/− mice with the lipids.

In experiment [1] the test system is lymphocytic choriomeningitis virus (LCMV). Format: in vivo, C57BI/6 mice. The settings on record: 1 μg intravenous before 10^6 PFU LCMVArm, day 8 post-infection, intracellular IFN-γ.
A further experiment deals with C57BI/6 mice. Put plainly: Serum cytokines after intravenous injection, ELISA. The class given is in vivo. The following applies: 1 μg intravenous, at 24 hours. On the procedure:
In vivo, following intravenous injection of 1 μg of positive control compound, αGalCer, or PBS-32, IFN-γ production in the serum of C57BI/6 mice was measured by ELISA and was very similar for both compounds (2500 pg/ml and 1500 pg/ml at 24 hours, respectively). IL-4 was undetectable following PBS-32 injection. […] At eight hours post-injection, PBS-32 induced 600 pg/ml IFN-γ.
(An ELISA detects its analyte on a solid surface through an enzyme-linked reagent.)

A further experiment deals with Vα14/2Cβ TCR. The following applies: previously reported, Cantu et al. 2003; read-out: affinity of the TCR for CD1d-lipid complex; cited from earlier work.

Take `CCCCCCCCCCCCCCCCCCCCCCCCCC(=O)N[C@@H](CO[C@H]1O[C@H](CO)[C@H](O)[C@H](O)[C@H]1O)[C@H](O)[C@H](O)CCCCCCCCCCCCCC` [αGalCer, α-galactosylceramide, reference compound]: the “DC phenotype (CD40, CD80, CD86, MHC class II expression)” value in the experiment on splenic DCs is given as “mature phenotype”. Besides, in experiment [1], the “anti-LCMV CD4+ T cell response (GP61, NP309)” value was “unchanged” and the “anti-LCMV CD8+ T cell response (GP33, NP396, GP276)” value is given as “significantly increase”. Besides, in the experiment with C57BI/6 mice, the “IFN-γ production in the serum” value came to 2500 pg/mL. Further, the Kd on Vα14/2Cβ TCR is 30 nM.
